# Test: Study 2 blood chemistry
# Type: in vivo, human
# Conditions: for Aspartate Aminotransferase / Gamma-glutamyl: in U/L (unit assumed)
# Method: Study 2 design. Study 2 was conducted similar to study 1 with the following modifications. In study 2, plasma levels of HMB were measured for 1440 min (24 h) and total urine collection was also performed for measurement of urinary HMB excretion during this period. After the 180 min blood sample, the subjects were allowed to leave the laboratory and were instructed to return to the laboratory for additional blood samples at 360, 720, and 1440 min after the ingestion of the supplement. As in study 1, each subject took each of the treatments with at least a one week washout period between treatments. Samples were again stored frozen at −70° C. for analysis of plasma and urinary HMB concentrations. Pre-ingestion, 180 min and 1440 min blood samples were again assayed for the same measurements already for study 1. Subjects were provided with a standardized lunch after the 180 min blood sampling and instructed to eat this at approximately 240 min post ingestion. Following the 720 min blood sample, subjects were instructed to eat a normal evening meal before 10 pm. Subjects reported back to the laboratory the following morning for the fasted 1440 min blood sample. A urine collection container was provided and subjects collected all urine produced during the experimental 24 h experimental period. The urine was stored refrigerated when not being collected. Urine volumes were measured and samples of the total urine collection were taken and stored frozen at −70° C. until analyzed for HMB.
# The data were analyzed using a crossover design with Proc GLM in SAS. (45) For the timed sampling of plasma HMB a repeated measures polynomial model was used. The model included subject, order, and treatment main effects and time by treatment interaction where appropriate. For other parameters Proc GLM was also used with subject, order, and treatment main effects and the p values are reported for the treatment main effect. Statistical significance was determined for p<0.05 and a trend was determined for 0.05<p<0.10.
smiles,measurement,setting,value
"CC(C)(O)CC(=O)O [HMB-Acid Gel Sublingual, 3-hydroxy-3-methylbutyric acid]",A:G Ratio,After (24 h),1.8 ± 0.1
same,Alanine Aminotransferase,After (24 h),16.6 ± 1.8 IU/L
same,Albumin,After (24 h),4.2 ± 0.1 g/dL
same,Alkaline Phosphatase,After (24 h),62.8 ± 6.7 IU/L
same,Blood Urea Nitrogen,After (24 h),15.4 ± 1.1 mg/dL
same,CO2,After (24 h),27.9 ± 0.4 mEq/L
same,Chloride,After (24 h),104.3 ± 0.9 mEq/L
same,Cholesterol Ratio,After (24 h),3.2 ± 0.2
same,Creatinine,After (24 h),1.0 ± 0.1 mg/dL
same,Direct Bilirubin,After (24 h),0.1 ± 0.04 mg/dL
same,Globulin,After (24 h),2.4 ± 0.1 g/dL
same,Glucose,After (24 h),80.8 ± 2.1 mg/dL
same,HDL,After (24 h),51.3 ± 2.8 mg/dL
same,Iron,After (24 h),65.0 ± 12.1 µg/dL
same,Iron Binding Capacity,After (24 h),385.0 ± 29.8 µg/dL
same,Iron Saturation,After (24 h),20.1 ± 4.2%
same,LDL,After (24 h),90.4 ± 6.8 mg/dL
same,Lactate Dehydrogenase,After (24 h),151.8 ± 5.2 IU/L
same,Phosphorus,After (24 h),4.6 ± 0.2 mg/dL
same,Potassium,After (24 h),4.9 ± 0.1 mEq/L
same,Protein,After (24 h),6.6 ± 0.2 g/dL
same,Sodium,After (24 h),142.1 ± 1.1 mEq/L
same,Total Bilirubin,After (24 h),0.5 ± 0.1 mg/dL
same,Total Cholesterol,After (24 h),163.3 ± 9.3 mg/dL
same,Triglycerides,After (24 h),107.6 ± 16.6 mg/dL
same,UIBC,After (24 h),312.0 ± 35.9 µg/dL
same,Uric Acid,After (24 h),4.7 ± 0.3 mg/dL
same,Aspartate Aminotransferase,After (24 h),24.8 ± 2.3
same,Gamma-glutamyl,After (24 h),13.9 ± 1.0
same,A:G Ratio,Before,1.8 ± 0.1
same,Alanine Aminotransferase,Before,15.3 ± 1.5 IU/L
same,Albumin,Before,4.1 ± 0.1 g/dL
same,Alkaline Phosphatase,Before,66.5 ± 7.3 IU/L
same,Blood Urea Nitrogen,Before,15.3 ± 1.7 mg/dL
same,CO2,Before,25.3 ± 0.8 mEq/L
same,Chloride,Before,102.1 ± 0.5 mEq/L
same,Cholesterol Ratio,Before,3.1 ± 0.2
same,Creatinine,Before,1.0 ± 0.1 mg/dL
same,Direct Bilirubin,Before,0.1 ± 0.03 mg/dL
same,Globulin,Before,2.3 ± 0.1 g/dL
same,Glucose,Before,73.0 ± 1.8 mg/dL
same,HDL,Before,52.3 ± 3.1 mg/dL
same,Iron,Before,107.6 ± 13.7 µg/dL
same,Iron Binding Capacity,Before,371.9 ± 31.4 µg/dL
same,Iron Saturation,Before,30.1 ± 5.1%
same,LDL,Before,91.3 ± 5.9 mg/dL
same,Lactate Dehydrogenase,Before,163.8 ± 11.9 IU/L
same,Phosphorus,Before,4.1 ± 0.1 mg/dL
same,Potassium,Before,4.0 ± 0.1 mEq/L
same,Protein,Before,6.5 ± 0.2 g/dL
same,Sodium,Before,138.5 ± 0.6 mEq/L
same,Total Bilirubin,Before,0.6 ± 0.1 mg/dL
same,Total Cholesterol,Before,161.6 ± 9.4 mg/dL
same,Triglycerides,Before,93.1 ± 10.6 mg/dL
same,UIBC,Before,264.3 ± 33.3 µg/dL
same,Uric Acid,Before,4.7 ± 0.3 mg/dL
same,A:G Ratio % Change,Before to After,−1.4%
same,Alanine Aminotransferase % Change,Before to After,9.0%
same,Albumin % Change,Before to After,2.7%
same,Alkaline Phosphatase % Change,Before to After,−5.6%
same,Aspartate Aminotransferase % Change,Before to After,3.7%
same,Blood Urea Nitrogen % Change,Before to After,0.8%
same,CO2 % Change,Before to After,10.4%
same,Chloride % Change,Before to After,2.1%
same,Cholesterol Ratio % Change,Before to After,3.6%
same,Creatinine % Change,Before to After,7.9%
same,Direct Bilirubin % Change,Before to After,−12.8%
same,Gamma-glutamyl % Change,Before to After,0.0%
same,Globulin % Change,Before to After,3.2%
same,Glucose % Change,Before to After,10.6%
same,HDL % Change,Before to After,−1.9%
same,Iron % Change,Before to After,−39.6%
same,Iron Binding Capacity % Change,Before to After,3.5%
same,Iron Saturation % Change,Before to After,−33.2%
same,LDL % Change,Before to After,−1.0%
same,Lactate Dehydrogenase % Change,Before to After,−7.3%
same,Phosphorus % Change,Before to After,11.5%
same,Potassium % Change,Before to After,21.7%
same,Protein % Change,Before to After,2.9%
same,Sodium % Change,Before to After,2.6%
same,Total Bilirubin % Change,Before to After,−13.3%
same,Total Cholesterol % Change,Before to After,1.0%
same,Triglycerides % Change,Before to After,15.6%
same,UIBC % Change,Before to After,18.1%
same,Uric Acid % Change,Before to After,0.8%
same,Aspartate Aminotransferase,Before,23.9 ± 3.2
same,Gamma-glutamyl,Before,13.9±1.2

# — patent US20210113501A1, “METHOD OF ADMINISTERING BETA-HYDROXY-BETA-METHYLBUTYRATE (HMB)” (Metabolic Technologies, Inc., priority 2009, published 2021)
